Results taken from article PMC11445181 (Frontiers in Plant Science, 2024).

Molecular target: T1, LcCOMT (Conioselinum anthriscoides, UniProt A0A0K1YW34)
T1 construct: full-length cDNA in pET28a, His-tagged, E. coli BL21 (DE3), Ni-agarose purified; homodimer (N-terminal dimerization domain)
T1 sequence (A0A0K1YW34 1-362): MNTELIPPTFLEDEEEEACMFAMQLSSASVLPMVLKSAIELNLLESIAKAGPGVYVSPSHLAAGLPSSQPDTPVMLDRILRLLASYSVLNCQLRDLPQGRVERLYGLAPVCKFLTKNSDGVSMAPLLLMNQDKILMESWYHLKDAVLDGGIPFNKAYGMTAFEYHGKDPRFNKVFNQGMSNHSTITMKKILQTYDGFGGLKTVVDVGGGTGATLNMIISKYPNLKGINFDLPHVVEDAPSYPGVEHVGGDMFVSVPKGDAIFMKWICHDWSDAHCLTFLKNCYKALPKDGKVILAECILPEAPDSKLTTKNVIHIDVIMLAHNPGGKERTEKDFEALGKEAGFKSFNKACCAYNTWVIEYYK
Test: inhibition of N-acetylserotonin methylation
Format: biochemical
Conditions: 2.0 mM N-acetylserotonin; caffeic acid is itself a substrate (competing substrate)

O=C(O)/C=C/c1ccc(O)c(O)c1 [caffeic acid]
% reduction in activity at 1.0 mM: 31.80%
